Experimental data published in PMC6769468, “Endogenous Neuropeptide Nocistatin Is a Direct Agonist of Acid-Sensing Ion Channels (ASIC1, ASIC2 and ASIC3)” (Biomolecules, 2019).
Ends that are not written are not given here.

How the values were obtained:
rat ASIC2a = molecular target: T1, rat ASIC2a (Rattus norvegicus, UniProt Q62962); test: Whole-cell current activation, rat ASIC2a in X. laevis oocytes; assay type: cell-based
T1 construct: expressed in transfected cells; host or cells: Xenopus laevis oocytes (injected)
T1 sequence (Q62962 1-512): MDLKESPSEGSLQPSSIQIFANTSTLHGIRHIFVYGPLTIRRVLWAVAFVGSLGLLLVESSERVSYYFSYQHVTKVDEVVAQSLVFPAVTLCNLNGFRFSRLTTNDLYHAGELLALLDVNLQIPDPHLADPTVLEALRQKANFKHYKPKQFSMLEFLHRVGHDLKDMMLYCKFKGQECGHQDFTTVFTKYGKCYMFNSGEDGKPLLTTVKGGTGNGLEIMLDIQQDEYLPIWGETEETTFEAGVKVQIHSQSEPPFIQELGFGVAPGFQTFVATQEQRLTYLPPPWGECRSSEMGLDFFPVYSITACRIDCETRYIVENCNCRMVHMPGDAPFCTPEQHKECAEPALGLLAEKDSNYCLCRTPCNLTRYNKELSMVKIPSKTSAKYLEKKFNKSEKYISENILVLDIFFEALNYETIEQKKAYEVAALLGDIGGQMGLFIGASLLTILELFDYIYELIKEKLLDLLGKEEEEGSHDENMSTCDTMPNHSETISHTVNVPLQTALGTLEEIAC
Experimental: (§1) Oocytes expressed rASIC1a, rASIC1b, rASIC2a, and rASIC3 homomeric channels were prepared as described. Injected oocytes were kept for two–three days at 19 °C and then for up to seven days at 15 °C in ND-96 medium supplemented with gentamycin (50 μg·mL^−1) and containing (in mM): 96 NaCl, 2 KCl, 1.8 CaCl2, 1 MgCl2, and 10 HEPES titrated to pH 7.4 with NaOH. Electrophysiological recordings were performed using the GeneClamp500 amplifier (Axon Instruments, Inverurie, UK) at a holding potential of -50 mV. The data were filtered at 20 Hz and digitized at 100 Hz using the L780 AD converter (L-Card, Moscow, Russia). Microelectrodes were filled with 3 M KCl. The external bath solution was ND-96 with pH adjusted to 7.4/7.8 (10 mM HEPES) /8.5 (10 mM Tris). Nocistatin containing solutions were freshly prepared and buffered each experimental day in ND-96 bath solution (pH 7.4/7.8/8.5). Proton-activated currents through ASIC channels were elicited by application of ND-96, in which 10 mM of HEPES was substituted with 10 mM MES at pH 5.5/ 10 mM acetic acid at pH 4.5. The whole-cell recording was performed if a response to the control pH stimulus was stable in at least two replicates. Nocistatin-activated currents were elicited by application of nocistatin containing solutions with various concentrations of the peptide.
Extracellular solutions were applied using a computer-controlled valve system with a flow rate of 1 mL/min. The oocyte chamber volume was 80 µL. The validity of the application system for studying ASIC channels expressed in oocytes was confirmed in experiments by application of a Cl-free solution (containing (in mM): 130 NMDG, 1 MgGluc2, 2 KGluc, 5 HEPES) (pH 7.4). […]
(§2) All data are presented as mean ± SEM. The significance of normalized data differences was determined with a non-parametric Kruskal-Wallis ANOVA test with the significance level * p < 0.05 and ** p < 0.01; ns, non-significant.

rat ASIC1a = molecular target: T2, rat ASIC1a (Rattus norvegicus, UniProt P55926); test: Whole-cell current activation, rat ASIC1a in X. laevis oocytes; assay type: cell-based; details: for ASIC1a current amplitude, % of control pH 5.5 stimulus: n = 4
T2 construct: expressed in transfected cells; host or cells: Xenopus laevis oocytes (injected)
T2 sequence (P55926 1-526): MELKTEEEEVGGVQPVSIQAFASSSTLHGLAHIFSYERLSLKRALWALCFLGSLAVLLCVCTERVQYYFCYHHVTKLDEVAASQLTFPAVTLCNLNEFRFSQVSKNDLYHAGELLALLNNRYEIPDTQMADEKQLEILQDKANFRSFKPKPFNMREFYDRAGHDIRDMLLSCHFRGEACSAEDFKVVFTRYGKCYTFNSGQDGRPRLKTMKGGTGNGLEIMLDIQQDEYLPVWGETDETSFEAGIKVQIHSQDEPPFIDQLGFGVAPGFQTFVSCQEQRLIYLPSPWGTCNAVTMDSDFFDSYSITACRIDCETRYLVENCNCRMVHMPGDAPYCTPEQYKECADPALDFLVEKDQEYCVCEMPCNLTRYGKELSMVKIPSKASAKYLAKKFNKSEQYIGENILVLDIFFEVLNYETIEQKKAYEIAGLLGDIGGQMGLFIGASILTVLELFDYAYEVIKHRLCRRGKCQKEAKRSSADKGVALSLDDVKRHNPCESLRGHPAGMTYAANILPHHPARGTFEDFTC
Experimental: as §1
Extracellular solutions were applied using a computer-controlled valve system with a flow rate of 1 mL/min. The oocyte chamber volume was 80 µL. The validity of the application system for studying ASIC channels expressed in oocytes was confirmed in experiments by application of a Cl-free solution (containing (in mM): 130 NMDG, 1 MgGluc2, 2 KGluc, 5 HEPES) (pH 7.4). Fast application of proton/peptide-activating solution was performed at a flow rate of 1 mL/sec (the change of the bath solution occurred within 100 ms), followed by PC controlled flow stopping (from 5 to 15 s).
Analysis of electrophysiological data was performed using OriginPro 8.6 software (OriginLab, Northampton, MA, USA). Curves were fitted using different logistic equations:
(a) Usual logistic equation [33] F1(x) = A – A/(1 + (x/x0)^nH), where F1(x) is the current amplitude at nocistatin concentration x ([x]) (response at concentration x), A is the maximal current amplitude (or the maximum asymptote or the stabilized response for an infinite concentration), x0 is the value of [x] at which the function reach half their maximum value (the EC50 value), and nH is the Hill coefficient (slope factor or a level of cooperativity);
(b) Equation for the model of unequal sites occupation F2(x) = A/(1 + (x/EC501)^nH)*(1 + (x/EC502)), multiplication of two logistic equations where F2(x) is the current amplitude at nocistatin concentration x, A is the maximal current amplitude, [EC501] is the half-maximal concentration of nocistatin binding to pool of “cooperative” sites (or 0.5 probability of “cooperative” sites’ occupancy) and [EC502] is the half-maximal concentration of nocistatin binding to additional unequal site (or 0.5 probability of single site occupancy), and nH is the Hill coefficient (slope factor) for the pool of cooperative sites;
(d) The time course of curves’ decay was fitted using a mono-exponential equation: F4(x) = A1*e^(-x/τdes) + A0, where F4(x) is the current amplitude at the time point x, A1 is the maximal current amplitude, A0 is its steady-state value and τdes is the […].
as §2

uninjected oocytes = test: Application to uninjected oocytes (negative control); assay type: cell-based, Xenopus laevis; details: 1 mM rNS
Experimental: as §1, with “peptide. […]” for “peptide.”

## MPRVRSVVQARDAEPEADAEPVADEADEVEQKQLQ [rNS]
Rat ASIC2a; 1 mM rNS vs acidification, faster
  tmax less than for acidification by: ~ 37%
Rat ASIC2a; 1 mM rNS vs pH drop 7.4 to 5.5
  Maximal amplitude of peptide activation versus response to standard pH drop: eight times higher
Rat ASIC2a; 1 mM rNS, conditioning pH 7.4, mean ± S.E. from 4–7 measurements
  τdes (desensitization time constant): 2.22 ± 0.16 s
Rat ASIC1a; 1 mM nocistatin, conditioning pH 7.4
  ASIC1a current amplitude, % of control pH 5.5 stimulus: 95.5 ± 1.8%
Rat ASIC1a; 1 mM nocistatin, conditioning pH 7.8
  ASIC1a current amplitude, % of control pH 5.5 stimulus: 89.5 ± 2.8%
Rat ASIC1a; 1 mM nocistatin, conditioning pH 8.5
  ASIC1a current amplitude, % of control pH 5.5 stimulus: 86.7 ± 2.5%
Rat ASIC1a; 1 mM nocistatin, extracellular pH 7.4
  Maximal activating effect versus response to a pH drop of 7.4–5.5: comparable to the response to a pH drop of 7.4–5.5
Rat ASIC1a; 1 mM rNS vs pH drop 7.4–5.5
  Acurrent, nocistatin versus protons: did not differ between protons and nocistatin
  tmax, nocistatin versus protons: no differences
Rat ASIC1a; 1 mM rNS, conditioning pH 7.4, mono-exponential fit, mean ± S.E. from 4–7 measurements
  τdes (desensitization time constant): 1.4 ± 0.1 s
Rat ASIC1a; integral current, equation F2, n = 5
  Hill coefficient (nH), integral current activation: 4.8 ± 0.7
Rat ASIC1a; peak amplitude, pH 7.4, equation F2, n = 5
  Hill coefficient (nH) of activation: 7.44 ± 0.95
Uninjected oocytes
  Effect on uninjected oocytes: did not produce any effects on the uninjected oocytes
